Assay [1] deals with 5-hydroxytryptamine receptor 7 (Cavia porcellus, UniProt P50407).
The target of assay [2] is 5-hydroxytryptamine receptor 7 (Rattus norvegicus, UniProt P32305).
5-hydroxytryptamine receptor 7 (Rattus norvegicus, UniProt P32305), sequence (P32305 whole entry): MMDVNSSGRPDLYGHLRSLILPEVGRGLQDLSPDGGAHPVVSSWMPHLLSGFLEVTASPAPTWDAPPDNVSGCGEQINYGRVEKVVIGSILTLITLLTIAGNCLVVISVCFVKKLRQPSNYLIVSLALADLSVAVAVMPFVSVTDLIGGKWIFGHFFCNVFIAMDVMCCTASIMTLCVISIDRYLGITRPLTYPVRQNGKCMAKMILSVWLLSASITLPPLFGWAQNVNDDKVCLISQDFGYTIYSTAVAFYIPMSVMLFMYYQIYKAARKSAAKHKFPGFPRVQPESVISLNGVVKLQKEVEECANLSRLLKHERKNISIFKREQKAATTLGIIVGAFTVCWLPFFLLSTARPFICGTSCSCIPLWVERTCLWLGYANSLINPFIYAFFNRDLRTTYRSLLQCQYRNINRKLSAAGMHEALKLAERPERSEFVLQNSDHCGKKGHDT

5-hydroxytryptamine receptor 7 (Cavia porcellus, UniProt P50407), sequence (P50407 whole entry): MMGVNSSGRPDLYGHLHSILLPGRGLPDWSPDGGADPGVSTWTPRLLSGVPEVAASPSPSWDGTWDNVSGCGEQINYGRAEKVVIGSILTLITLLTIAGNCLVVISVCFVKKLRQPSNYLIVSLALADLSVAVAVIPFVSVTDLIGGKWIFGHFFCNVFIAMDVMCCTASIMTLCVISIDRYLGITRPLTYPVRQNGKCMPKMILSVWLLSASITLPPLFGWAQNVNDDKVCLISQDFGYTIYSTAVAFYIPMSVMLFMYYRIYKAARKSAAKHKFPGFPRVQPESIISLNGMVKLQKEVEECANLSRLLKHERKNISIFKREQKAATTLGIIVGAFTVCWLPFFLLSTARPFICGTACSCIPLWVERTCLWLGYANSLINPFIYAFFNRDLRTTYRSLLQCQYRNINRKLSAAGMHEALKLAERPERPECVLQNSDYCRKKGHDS

As usually defined, the Ki is the dissociation constant of the complex between target and ligand, obtained from inhibition or displacement. A low value points to tighter binding. For the compound `COc1ccc2[nH]cc(CCN)c2c1` [tryptamine, 5-Methoxy], in assay [1], the affinity corresponds to a Ki of 0.25 nM.

Compound `CCN(CC)C(=O)[C@@H]1C=C2c3cccc4[nH]cc(c34)C[C@H]2N(C)C1` [(4R,7R)-N,N-diethyl-6-methyl-6,11-diazatetracyclo[7.6.1.0^{2,7}.0^{12,16}]hexadeca-1(16),2,9,12,14-pentaene-4-carboxamide] displayed a Ki in assay [1] of 0.4 nM.

In the case of `Cc1nc2n(c(=O)c1CCN1CCC(c3noc4cc(F)ccc34)CC1)CCCC2` [3-{2-[4-(6-Fluoro-benzo[d]isoxazol-3-yl)-piperidin-1-yl]-ethyl}-2-methyl-6,7,8,9-tetrahydro-pyrido[1,2-a]pyrimidin-4-one(risperidone)], the affinity in assay [1], expressed as Ki, was 0.4 nM.

`CNS(=O)(=O)Cc1ccc2[nH]cc(CCN(C)C)c2c1` [Sumax]: the inhibition constant Ki in assay [1] came to 100 nM; in assay [2], 25.1 nM.

For `CN1C[C@@H](NS(=O)(=O)N(C)C)C[C@@H]2c3cccc4c3c(cn4C)C[C@H]21` [MESULERGINE], the inhibition constant (Ki) was determined as 12.6 nM in assay [1] and 10 nM in assay [2].

As to `Cc1nc2sccn2c(=O)c1CCN1CCC(=C(c2ccc(F)cc2)c2ccc(F)cc2)CC1`, the inhibitory constant (Ki) in assay [1] was determined as 5.01 nM; in assay [2], 25.1 nM.

`CN1C[C@H](CNC(=O)OCc2ccccc2)C[C@@H]2c3cccc4c3c(cn4C)C[C@H]21` [METERGOLINE]: the inhibition constant Ki was determined as 1.58 nM in assay [1] and 10 nM in assay [2].

For the compound `CC(C)NCC(O)COc1cccc2[nH]ccc12` (centres undefined) [LB-46], the results for the inhibition constant (Ki) in assay [1] and in assay [2] were 501 nM and greater than 10000 nM, respectively.

The compound `NCCc1c[nH]c2ccc(O)cc12` [[3H]-5-HT] had a Ki in assay [1] of 0.1 nM.

Values taken from BindingDB's records for doi:10.1038/sj.bjp.0702293 (Monash University, 1999).
